Here are results for 22 compounds from PubChem BioAssay (NCI).

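Cultured in 96-well plates, cells were exposed to test compound for 48 hours across five concentrations. The concentration for full growth arrest is given as TGI.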 Bounds are passed on as bounds.

Test systems include NCI-H23 lung; NCI-H522 lung; OVCAR-5 ovarian; SF-539 CNS; SK-MEL-5 melanoma; SNB-19 CNS; SR leukemia; SW-620 colon; UO-31 renal; SNB-75 CNS.
What all share (test): inhibition of tumour cell growth, NCI panel, 48 h

Consider `CCc1n[nH]c(=O)n1/N=C/c1ccccc1Cl`, for which the TGI with NCI-H23 lung, with NCI-H522 lung, with OVCAR-5 ovarian, in the test with SF-539 CNS, in the test on SK-MEL-5 melanoma and with SNB-19 CNS was more than 100 µM in each case. The TGI in the test with SR leukemia, in the test with SW-620 colon and in the test with UO-31 renal was more than 100 µM each time.

Consider `CCCCC(=O)Nc1ccc2cc(C(=O)OC)c(ON3C(=O)c4ccccc4C3=O)nc2n1`, for which the TGI is more than 100 µM in the test with NCI-H23 lung; 58.5 µM with NCI-H522 lung; 98.3 µM in the test on OVCAR-5 ovarian; 43.5 µM in the test on SF-539 CNS; more than 100 µM in the test on SK-MEL-5 melanoma; more than 100 µM in the test with SNB-19 CNS. Further, the TGI is 88.2 µM with SNB-75 CNS, more than 100 µM in the test on SR leukemia, more than 100 µM in the test with SW-620 colon and 44.4 µM in the test on UO-31 renal.

As to `O=[N+]([O-])c1cccc2nc3ccccc3c(NCCc3cccc[n+]3[O-])c12`, the TGI with NCI-H23 lung was 0.0661 µM; with NCI-H522 lung, 0.157 µM; with OVCAR-5 ovarian, 0.145 µM; in the test on SF-539 CNS, 0.194 µM; in the test on SK-MEL-5 melanoma, less than 0.01 µM; with SNB-19 CNS it was 1.62 µM. Moreover, the TGI was 0.161 µM with SR leukemia and 0.197 µM in the test on SW-620 colon.

Turning to `CC(C)C1(C)N=C(C(F)(F)F)c2cc(C(=O)C(F)(F)F)c3ccccc3c2N1` (centres undefined), the TGI in the test with NCI-H23 lung turned out to be 8.12 µM; with NCI-H522 lung, 7.16 µM; in the test with OVCAR-5 ovarian, 24.5 µM; in the test on SF-539 CNS, 20.8 µM; in the test with SK-MEL-5 melanoma it was 25.9 µM; with SNB-19 CNS, 16.6 µM. Further, the TGI with SNB-75 CNS is 7.96 µM; in the test on SR leukemia, more than 100 µM; in the test with SW-620 colon, more than 51.6 µM; in the test with UO-31 renal, 14.1 µM.

For the compound `CCCCc1c2c(nc3c1CCCC3O)/C(=C/c1ccccc1)CCC2` (centres undefined), the TGI with NCI-H23 lung was more than 100 µM; in the test with NCI-H522 lung, 52.5 µM; in the test on OVCAR-5 ovarian it was more than 100 µM; in the test with SF-539 CNS it was 66.9 µM; with SK-MEL-5 melanoma, 39.6 µM; in the test with SNB-19 CNS, more than 100 µM. In addition, the TGI in the test with SNB-75 CNS is more than 100 µM; in the test on SR leukemia, 42 µM; with SW-620 colon, 64.2 µM; in the test with UO-31 renal, more than 100 µM.

For the compound `CCCCCCOc1ccc(C(=O)NOCc2ccccc2)cc1`, the TGI in the test with NCI-H23 lung, in the test on NCI-H522 lung, with OVCAR-5 ovarian, with SF-539 CNS, in the test with SK-MEL-5 melanoma and with SNB-19 CNS was more than 100 µM each time. Besides, the TGI with SNB-75 CNS was more than 100 µM; in the test with SR leukemia, 67.4 µM; in the test on SW-620 colon it was more than 100 µM; in the test on UO-31 renal, more than 100 µM.

As to `CCOC(=O)CCC(NC(=O)c1ccc(Oc2nc3ccc(C(F)(F)F)cc3nc2-c2ccccc2)cc1)C(=O)OCC` (centres undefined), the TGI in the test on NCI-H23 lung was more than 79.2 µM; with NCI-H522 lung it was more than 100 µM; in the test with OVCAR-5 ovarian it was more than 100 µM; in the test on SF-539 CNS, more than 34.3 µM; with SK-MEL-5 melanoma, more than 100 µM; in the test on SNB-19 CNS, more than 100 µM. For the same compound, the TGI with SNB-75 CNS is 29.1 µM; with SR leukemia it was more than 100 µM; in the test with SW-620 colon, more than 100 µM; in the test with UO-31 renal it was more than 100 µM.

On to `CCOc1ccc(/C(O)=C/c2nc3ccccc3nc2/C=C(\O)c2ccc(OCC)cc2)cc1`, for which the TGI with NCI-H23 lung, in the test with NCI-H522 lung, with OVCAR-5 ovarian, with SF-539 CNS, in the test on SK-MEL-5 melanoma and in the test on SNB-19 CNS was more than 100 µM each time. The results for the TGI in the test on SR leukemia, in the test with SW-620 colon and in the test on UO-31 renal were 26.6 µM, more than 100 µM and more than 100 µM, respectively.

Regarding `COc1cccc(NC(=S)Nn2c(C)nc3ccccc3c2=O)c1`, the TGI in the test on NCI-H23 lung, in the test on NCI-H522 lung, in the test on OVCAR-5 ovarian, with SF-539 CNS, in the test with SK-MEL-5 melanoma and in the test with SNB-75 CNS was more than 100 µM throughout. The TGI in the test on SR leukemia, with SW-620 colon and with UO-31 renal was more than 100 µM each time.

As for `O=c1[nH]c(Nc2cccc(C(F)(F)F)c2)nc2nc[nH]c12`, the TGI in the test with NCI-H522 lung, in the test on OVCAR-5 ovarian, in the test on SF-539 CNS, with SK-MEL-5 melanoma, with SNB-19 CNS and with SNB-75 CNS was more than 100 µM in each case. Besides, the TGI in the test with SR leukemia and in the test on SW-620 colon was more than 100 µM in each case.

Take `O=C1NC(Cc2c[nH]c3ccccc23)C(=O)N2C(C3CCCCC3)c3[nH]c4ccccc4c3C[C@@H]12` (some centres undefined): the TGI is 51 µM in the test on NCI-H23 lung; 28.6 µM with NCI-H522 lung; 43 µM in the test on OVCAR-5 ovarian; 25.4 µM with SK-MEL-5 melanoma; more than 100 µM in the test on SNB-19 CNS; 34 µM in the test on SR leukemia. Further, the TGI turned out to be 73.7 µM in the test on SW-620 colon and 33.2 µM in the test on UO-31 renal.

For the compound `CCCn1c(SCC)c2ccccc2c1-c1nc(F)nc(F)n1`, the TGI in the test on NCI-H23 lung, in the test with NCI-H522 lung, with OVCAR-5 ovarian, with SF-539 CNS, in the test on SNB-19 CNS and in the test with SR leukemia was more than 100 µM each time. The TGI with SW-620 colon and in the test with UO-31 renal was more than 100 µM throughout.

On to `Cc1cccc2c1Oc1ccccc1C2NC(=O)c1ccc([N+](=O)[O-])cc1` (centres undefined), for which the TGI with NCI-H23 lung, in the test with NCI-H522 lung, with OVCAR-5 ovarian, in the test on SK-MEL-5 melanoma, in the test with SNB-19 CNS and with SR leukemia was more than 100 µM in each case. In addition, the TGI with SW-620 colon and in the test with UO-31 renal was more than 100 µM each time.

`C[C@H](Nc1c(O)c2c(c(O)c1Cl)C(=O)C=CC2=O)C(=O)Nc1ccc([N+](=O)[O-])cc1`: the TGI amounted to 4.45 µM in the test with NCI-H23 lung; 6.65 µM with NCI-H522 lung; 3.51 µM in the test with OVCAR-5 ovarian; 4.2 µM in the test with SF-539 CNS; 3.14 µM with SK-MEL-5 melanoma; 9.59 µM in the test with SNB-19 CNS. Further, the TGI is more than 10 µM in the test with SNB-75 CNS, more than 10 µM with SR leukemia and 6.49 µM with SW-620 colon.

Take `Nc1c(-c2nc3ccccc3s2)c2ccc([N+](=O)[O-])cc2c(=O)n1-c1cccc(C(=O)O)c1`: the TGI in the test with NCI-H23 lung is 92.8 µM; in the test with NCI-H522 lung it was more than 100 µM; in the test on SK-MEL-5 melanoma, more than 100 µM; in the test on SNB-19 CNS, 52 µM; with SNB-75 CNS it was 85.4 µM; with SR leukemia it was 44.1 µM. The values for the TGI with SW-620 colon and in the test with UO-31 renal were more than 100 µM and 71.8 µM, respectively.

On to `O=C(/C=C/c1ccc(Cl)cc1)Oc1ccc(/C=C2\CCCCC2=O)cc1`, for which the TGI in the test with NCI-H23 lung, in the test with NCI-H522 lung, with OVCAR-5 ovarian, in the test with SF-539 CNS, in the test on SK-MEL-5 melanoma and in the test on SNB-75 CNS was more than 100 µM in each case. Besides, the TGI with SR leukemia, in the test on SW-620 colon and with UO-31 renal was more than 100 µM throughout.

In the case of `COC(=O)C1(Cc2ccc3c(c2)CCC3)Cc2ccc3c(c2C1O)CCC3` (centres undefined), the TGI was 25.6 µM in the test on NCI-H522 lung; 47.4 µM with SF-539 CNS; 22.1 µM in the test with SK-MEL-5 melanoma; more than 100 µM in the test on SNB-75 CNS; more than 100 µM in the test with SR leukemia; 30.2 µM in the test with SW-620 colon. The same compound displayed a TGI in the test with UO-31 renal of 22.5 µM.

`CC1(C2(C)OC(=O)c3ccccc32)OC(=O)c2ccccc21` (centres undefined): the TGI with NCI-H23 lung, in the test on NCI-H522 lung, in the test on SF-539 CNS, in the test with SK-MEL-5 melanoma, in the test on SNB-19 CNS and in the test with SNB-75 CNS was more than 100 µM throughout. The TGI in the test on SR leukemia, in the test on SW-620 colon and in the test with UO-31 renal was more than 100 µM throughout.

Turning to `CC1=C2c3c(C)ccc4ccc(C)c(c34)C2(O)C(C)C1=O` (centres undefined), the TGI in the test on NCI-H522 lung, in the test on OVCAR-5 ovarian, in the test with SF-539 CNS, in the test with SK-MEL-5 melanoma, in the test on SNB-19 CNS and in the test on SNB-75 CNS was more than 100 µM in each case. Besides, the TGI in the test on SR leukemia, in the test on SW-620 colon and with UO-31 renal was more than 100 µM each time.

With `O=c1cc(N2CCOCC2)[nH]c(=O)n1-c1cccc(C(F)(F)F)c1`, the TGI with NCI-H23 lung, in the test on NCI-H522 lung, in the test on OVCAR-5 ovarian, in the test with SF-539 CNS, with SK-MEL-5 melanoma and in the test on SNB-75 CNS was more than 100 µM in each case. Further, the TGI with SR leukemia, with SW-620 colon and in the test with UO-31 renal was more than 100 µM throughout.

For `CC(OC(=O)NCn1cc(-c2ccccc2)nn1)c1ccccc1` (centres undefined), the TGI in the test on NCI-H23 lung was 76.8 µM; in the test with NCI-H522 lung, more than 100 µM; in the test with OVCAR-5 ovarian it was more than 100 µM; with SF-539 CNS, more than 100 µM; in the test on SK-MEL-5 melanoma it was 32.4 µM; in the test with SNB-19 CNS, more than 100 µM. Moreover, the TGI in the test on SR leukemia and in the test on SW-620 colon was more than 100 µM each time.

Regarding `Cc1ccc(S(=O)(=O)NN=C2CCCCCCCCCCC2)cc1`, the TGI with NCI-H23 lung, in the test with NCI-H522 lung, in the test on OVCAR-5 ovarian, with SF-539 CNS, in the test on SK-MEL-5 melanoma and in the test on SNB-19 CNS was more than 100 µM each time. Also, the TGI in the test with SR leukemia, with SW-620 colon and in the test with UO-31 renal was more than 100 µM each time.
